Measurements from publication PMC9181899, “Synthesis and Anticancer Properties of New 3-Methylidene-1-sulfonyl-2,3-dihydroquinolin-4(1H)-ones” (Molecules, 2022).
Like-named read-outs stand apart in the source and are kept apart here.

Legend:
MCF-7 cells = test: MTT in vitro cytotoxicity assay, MCF-7; format: cell-based; settings: mean ± SEM
Description: (§1) The promyelocytic leukemia HL-60 and breast cancer adenocarcinoma MCF-7 cell lines were purchased from the European Collection of Cell Cultures (ECACC). Leukemia cells were cultured in RPMI 1640 plus GlutaMax I medium (Gibco/Life Technologies, Carlsbad, CA, USA). MCF-7 cells were maintained in Minimum Essential Medium Eagle (Sigma Aldrich, St. Louis, MO, USA) and supplemented with 2 mM glutamine and men non-essential amino acid solution (Sigma Aldrich, St. Louis, MO, USA). Both media were supplemented with 10% heat-inactivated fetal bovine serum (Biological Industries, Beit-Haemek, Israel) and antibiotics (100 U/mL penicillin and 100 μg/mL streptomycin) (Sigma-Aldrich, St. Louis, MO, USA). Human umbilical vein endothelial cells (HUVECs) were purchased from the American Type Culture Collection (ATCC). Cells were cultured using EGM-2 Endothelial Medium BulletKit purchased from Lonza (Lonza, Walkersville, MD, USA). Cells were maintained at 37 °C in 5% CO2 atmosphere and grown until 80% confluent.
(§2) The tested compounds were dissolved in sterile dimethyl sulfoxide (DMSO) and further diluted with culture medium. The final concentration of DMSO in cell cultures was less than 0.1% v/v. Controls without and with 0.1% DMSO were performed in each experiment. At the used concentration, DMSO had no effect on the observed parameters.
(§3) The MTT (3-(4,5-dimethylthiazol-2-yl)-2,5-diphenyltetrazolium bromide) assay, which measures the activity of cellular dehydrogenases, was performed according to the Mosmann method. Exponentially growing cells were seeded into 24-well plates at a density of 8 × 10^4 cells/mL and left to grow for 24 h. After 24 h or 48 h of incubation with various concentrations of the tested compounds (dissolved in DMSO and diluted with complete culture medium), cells were incubated with 0.1 mL of MTT solution (5 mg/mL in phosphate buffered saline) for 1.5 h. The metabolically active cells reduced MTT to blue formazan crystals. The plates were centrifuged, and the supernatant was discarded. DMSO (1 mL) was added to each well to dissolve the crystals, whose absorbance was measured at 560 nm using FlexStation 3 Multi-Mode Microplate Reader (Molecular Devices, LLC, San Jose, CA, USA). The untreated cells were used as control. The IC50 values were calculated from the concentration–response curves. The data were expressed as mean ± SEM of three independent experiments.

HL-60 cells [1] = test: MTT in vitro cytotoxicity assay, HL-60; format: cell-based; settings: 48 h incubation, mean ± SEM, read-out: IC50 HL-60
Description: as §1, §2, §3

HUVEC cells = test: MTT in vitro cytotoxicity assay, HUVEC (normal cells); format: cell-based, human; settings: 48 h incubation, mean ± SEM
Description: as §1, §2, §3

HL-60 cells [2] = test: Apoptosis by cleaved PARP (Asp214) staining, flow cytometry; format: cell-based; settings: 24 h, control 1.4%
Description: To evaluate the anticancer potential of 5a, the ability of this compound to inhibit cell proliferation, induce apoptotic cell death, and generate DNA damage was examined by flow cytometry using the ‘Apoptosis, DNA Damage, and Cell Proliferation Kit’ (BD Bioscience). After 24 h treatment with 5a in increasing concentrations, HL-60 cells were exposed to bromodeoxyuridine (BrdU) for additional 8 h. Then, the cells were simultaneously stained with fluorochrome-labeled anti-BrdU, anti-cleaved PARP (Asp214) and anti-H2AX (pS139).
To check whether the cytotoxic effect of 5a was associated with the induction of apoptosis, the pro-apoptotic activity of this compound was investigated. Apoptosis regulation is triggered by the activation of caspases. Caspase-3, an effector caspase, cleaves a number of vital proteins, leading to cell death. The activity of caspase-3 was assessed by flow cytometry using fluorochrome-labeled antibodies recognizing 89 kDa-cleaved PARP fragments released from PARP by caspase-3 in the executive stage of apoptosis.
Cell proliferation, DNA damage, and apoptotic cell death were determined using Apoptosis, DNA Damage, and Cell Proliferation Kit (BD Bioscience, San Jose, CA, USA), according to the manufacturer protocol. Briefly, HL-60 cells were seeded in 6-well plates (4.0 × 10^5 cells/mL) in 2 mL of growth medium and treated with 5a for 24 h. Afterwards, the bromodeoxyuridine (BrdU, 10 µM) was added and the cells were incubated for additional 8 h. Next, the cells were collected by centrifugation (300× g, 5 min), counted, fixed, and permeabilized according to the manufacturer’s instructions. The cells were incubated with DNase (300 µg/mL in PBS) for 1 h at 37 °C and then simultaneously stained with fluorochrome-labeled anti-BrdU, H2AX (pS139), and cleaved PARP (Asp214) antibodies, for 20 min at room temperature. After washing, DNA staining with DAPI (1 µg/mL of the staining buffer) was performed, and the cells were analyzed by flow cytometry using CytoFLEX (Beckman Coulter, Inc., Brea, CA, USA).

[3] = Homo sapiens, MCF7, 48 h incubation

Row | Structure (SMILES) | melting point [°C] | IC50 (MCF-7 cells; 48 h incubation) [nM] | IC50 (HL-60 cells [1]) [nM] | IC50 (HUVEC cells) [nM] | IC50 (MCF-7 cells; [3]) [nM] | IC50 (HL-60 cells [1]; Homo sapiens, HL-60, 48 h) [nM] | IC50 (HUVEC cells; Homo sapiens, HUVEC) [nM] | apoptotic cells (cleaved PARP positive) population (HL-60 cells [2]; 1.35 µM) [%] | apoptotic cells (cleaved PARP positive) population (HL-60 cells [2]; 1.8 µM) [%]
1 | N.N.O=C([O-])C1(C(=O)[O-])CCC1.[Pt+2] [Carboplatin, reference compound] | – | 2900 ± 100 | 3800 ± 450 | 5350 ± 50 | – | – | – | – | –
2 | C=C1C(=O)c2ccccc2N(S(=O)(=O)c2ccccc2)C1C(C)C (stereo not shown) [Compound 5b, 3-Methylidene-1-(phenylsulfonyl)-2-(propan-2-yl)-2,3-dihydroquinolin-4(1H)-one] | 86 | – | 290 ± 20 | – | 830 ± 20 | < 300 | 780 ± 210 | – | –
3 | C=C1C(=O)c2ccccc2N(S(=O)(=O)c2ccccc2)C1c1ccccc1 (stereo not shown) [Compound 5c, 3-Methylidene-2-phenyl-1-(phenylsulfonyl)-2,3-dihydroquinolin-4(1H)-one] | 150 | – | – | – | 2250 ± 200 | 1360 ± 130 | – | – | –
4 | C=C1C(=O)c2ccccc2N(S(=O)(=O)c2ccccc2)C1c1ccc(OC)cc1 (stereo not shown) [Compound 5d, 2-(4-Methoxyphenyl)-3-methylidene-1-(phenylsulfonyl)-2,3-dihydroquinolin-4(1H)-one] | 152 | – | – | – | 1210 ± 240 | 1120 ± 370 | – | – | –
5 | C=C1C(=O)c2ccccc2N(S(=O)(=O)c2ccc(Cl)cc2)C1CC (stereo not shown) [Compound 5e, 1-((4-Chlorophenyl)sulfonyl)-2-ethyl-3-methylidene-2,3-dihydroquinolin-4(1H)-one] | 118 | – | – | – | 1610 ± 70 | 370 ± 50 | 750 | – | –
6 | C=C1C(=O)c2ccccc2N(S(=O)(=O)c2ccc(Cl)cc2)C1C(C)C (stereo not shown) [Compound 5f, 1-((4-Chlorophenyl)sulfonyl)-3-methylidene-2-(propan-2-yl)-2,3-dihydroquinolin-4(1H)-one] | 126 | – | 230 ± 10 | – | 860 ± 20 | < 300 | 990 ± 70 | – | –
7 | C=C1C(=O)c2ccccc2N(S(=O)(=O)c2ccc(Cl)cc2)C1c1ccccc1 (stereo not shown) [Compound 5g] | 178 | – | – | – | 1890 ± 30 | 780 ± 70 | – | – | –
8 | C=C1C(=O)c2ccccc2N(S(=O)(=O)c2ccc(Cl)cc2)C1c1ccc(OC)cc1 (stereo not shown) [Compound 5h, 1-((4-Chlorophenyl)sulfonyl)-2-(4-methoxyphenyl)-3-methylidene-2,3-dihydroquinolin-4(1H)-one] | 140 | – | – | – | 2100 ± 160 | 920 ± 10 | – | – | –
9 | C=C1C(=O)c2cc(OC)c(OC)cc2N(S(=O)(=O)c2ccc(C)cc2)C1CC (stereo not shown) [Compound 5i, 2-Ethyl-6,7-dimethoxy-3-methylidene-1-tosyl-2,3-dihydroquinolin-4(1H)-one] | 168 | – | – | – | 1010 ± 50 | 370 ± 20 | 420 ± 80 | – | –
10 | CCOP(=O)(OCC)C1=C(O)c2ccccc2N(S(=O)(=O)c2ccccc2)C1CC (stereo not shown) [Compound 10a] | – | – | – | – | – | – | – | 20.6 | 26.4

The next lines start with results.

Row | melting point [°C] | Structure (SMILES) | IC50 (MCF-7 cells; 48 h incubation) [nM] | IC50 (HL-60 cells [1]) [nM] | IC50 (HUVEC cells) [nM] | IC50 (MCF-7 cells; [3]) [nM] | IC50 (HL-60 cells [1]; Homo sapiens, HL-60, 48 h) [nM] | IC50 (HUVEC cells; Homo sapiens, HUVEC) [nM] | apoptotic cells (cleaved PARP positive) population (HL-60 cells [2]; 1.35 µM) [%] | apoptotic cells (cleaved PARP positive) population (HL-60 cells [2]; 1.8 µM) [%]
11 | 150 | C=C1C(=O)c2cc(OC)c(OC)cc2N(S(=O)(=O)c2ccc(C)cc2)C1C(C)C (stereo not shown) [Compound 5j, 6,7-Dimethoxy-3-methylidene-2-(propan-2-yl)-1-tosyl-2,3-dihydroquinolin-4(1H)-one] | – | – | – | 1440 ± 70 | 430 ± 20 | 990 ± 70 | – | –
12 | 196 | C=C1C(=O)c2cc(OC)c(OC)cc2N(S(=O)(=O)c2ccc(C)cc2)C1c1ccccc1 (stereo not shown) [Compound 5k, 6,7-Dimethoxy-3-methylidene-2-phenyl-1-tosyl-2,3-dihydroquinolin-4(1H)-one] | – | – | – | 1460 ± 90 | 580 ± 20 | – | – | –
13 | 196 | C=C1C(=O)c2cc(OC)c(OC)cc2N(S(=O)(=O)c2ccc(C)cc2)C1c1ccc(OC)cc1 (stereo not shown) [Compound 5l, 6,7-Dimethoxy-2-(4-methoxyphenyl)-3-methylidene-1-tosyl-2,3-dihydroquinolin-4(1H)-one] | – | – | – | 1150 ± 40 | 1480 ± 60 | – | – | –
14 | 126 | C=C1C(=O)c2cc(Cl)ccc2N(S(=O)(=O)c2ccc(C)cc2)C1CC (stereo not shown) [Compound 5m, 6-Chloro-2-ethyl-3-methylidene-1-tosyl-2,3-dihydroquinolin-4(1H)-one] | – | – | – | 3480 ± 420 | 1750 ± 30 | – | – | –
15 | 130 | C=C1C(=O)c2cc(Cl)ccc2N(S(=O)(=O)c2ccc(C)cc2)C1C(C)C (stereo not shown) [Compound 5n, 6-Chloro-3-methylidene-2-(propan-2-yl)-1-tosyl-2,3-dihydroquinolin-4(1H)-one] | – | – | – | 1650 ± 50 | 670 ± 10 | 680 ± 30 | – | –
16 | 162 | C=C1C(=O)c2cc(Cl)ccc2N(S(=O)(=O)c2ccc(C)cc2)C1c1ccccc1 (stereo not shown) [Compound 5o, 6-Chloro-3-methylidene-2-phenyl-1-tosyl-2,3-dihydroquinolin-4(1H)-one] | – | – | – | 3670 ± 410 | 2040 ± 50 | – | – | –
17 | 150 | C=C1C(=O)c2cc(Cl)ccc2N(S(=O)(=O)c2ccc(C)cc2)C1c1ccc(OC)cc1 (stereo not shown) [Compound 5p, 6-Chloro-2-(4-methoxyphenyl)-3-methylidene-1-tosyl-2,3-dihydroquinolin-4(1H)-one] | – | – | – | 3600 ± 190 | 2070 ± 20 | – | – | –
18 | 132 | C=C1C(=O)c2cc(Br)ccc2N(S(=O)(=O)c2ccc(C)cc2)C1CC (stereo not shown) [Compound 5q, 6. -Bromo-2-ethyl-3-methylidene-1-tosyl-2,3-dihydroquinolin-4(1H)-one] | – | – | – | 1830 ± 150 | 610 ± 40 | 1000 ± 220 | – | –
19 | 118 | C=C1C(=O)c2cc(Br)ccc2N(S(=O)(=O)c2ccc(C)cc2)C1C(C)C (stereo not shown) [Compound 5r, 6-Bromo-3-methylidene-2-(propan-2-yl)-1-tosyl-2,3-dihydroquinolin-4(1H)-one] | – | 190 ± 30 | – | 830 ± 20 | < 300 | 470 ± 30 | – | –
20 | 162 | C=C1C(=O)c2cc(Br)ccc2N(S(=O)(=O)c2ccc(C)cc2)C1c1ccccc1 (stereo not shown) [Compound 5s, 6-Bromo-3-methylidene-2-phenyl-1-tosyl-2,3-dihydroquinolin-4(1H)-one] | – | – | – | 2670 ± 50 | 620 ± 10 | – | – | –
21 | 168 | C=C1C(=O)c2cc(Br)ccc2N(S(=O)(=O)c2ccc(C)cc2)C1c1ccc(OC)cc1 (stereo not shown) [Compound 5t, 6-Bromo-2-(4-methoxyphenyl)-3-methylidene-1-tosyl-2,3-dihydroquinolin-4(1H)-one] | – | – | – | 2810 ± 50 | 740 ± 60 | – | – | –
